How the values were obtained:
Type in all cases: in vivo
Viola tricolor [1] = assay: Pre-emergence herbicidal activity; conditions: pre-emergence method, application rate of 0.1 kg or less of active substance per hectare, visual scoring after 3 to 4 weeks
From the text: (§1) Seeds or rhizome pieces of mono- and dicotyledonous weeds were placed in sandy loam in cardboard pots and covered with soil. The compounds according to the invention, formulated in the form of wettable powders or emulsion concentrates, were then applied to the surface of the covering soil in the form of aqueous suspensions or emulsions at an application rate of 100 to 8001 of water/ha (converted), at various dosages.
(§2) After the treatment, the pots were placed in a greenhouse and kept under good growth conditions for the weeds. Visual scoring of the damage to the plants or the emergence damage was carried out after the emergence of the test plants after a test period of 3 to 4 weeks, by comparison with untreated controls. As shown by the results, the compounds according to the invention have good herbicidal pre-emergence activity against a broad spectrum of weed grasses and broad-leaved weeds.

Lolium multiflorum [2] = assay: Pre-emergence herbicidal activity; conditions: pre-emergence method, application rate of 0.1 kg or less of active substance per hectare, visual scoring after 3 to 4 weeks
From the text: as §1, §2

Matricaria inodora [3] = assay: Pre-emergence herbicidal activity; conditions: pre-emergence method, application rate of 0.1 kg or less of active substance per hectare, visual scoring after 3 to 4 weeks
From the text: as §1, §2

Papaver rhoeas = assay: Pre-emergence herbicidal activity; conditions: pre-emergence method, application rate of 0.1 kg or less of active substance per hectare, visual scoring after 3 to 4 weeks
From the text: as §1, §2

Stellaria media [4] = assay: Pre-emergence herbicidal activity; conditions: pre-emergence method, application rate of 0.1 kg or less of active substance per hectare, visual scoring after 3 to 4 weeks
From the text: as §1, §2

Viola tricolor [5] = assay: Post-emergence action against weeds; conditions: post-emergence method, application rate of 0.1 kg or less of active substance per hectare, visual scoring after about 3 to 4 weeks
Method: (§3) Seeds or rhizome pieces of monocotyledonous and dicotyledonous weeds were placed in sandy loam in plastic pots, covered with soil and cultivated in a greenhouse under good growth conditions. Three weeks after sowing, the test plants were treated at the three-leaf stage.

Lolium multiflorum [6] = assay: Post-emergence action against weeds; conditions: post-emergence method, application rate of 0.1 kg or less of active substance per hectare, visual scoring after about 3 to 4 weeks
Method: as §3

Matricaria inodora [7] = assay: Post-emergence action against weeds; conditions: post-emergence method, application rate of 0.1 kg or less of active substance per hectare, visual scoring after about 3 to 4 weeks
Method: as §3

Veronica persica = assay: Post-emergence action against weeds; conditions: post-emergence method, application rate of 0.1 kg or less of active substance per hectare, visual scoring after about 3 to 4 weeks
Method: as §3

Ipomoea purpurea = assay: Post-emergence action against weeds; conditions: post-emergence method, application rate of 0.1 kg or less of active substance per hectare, visual scoring after about 3 to 4 weeks
Method: as §3

Amaranthus retroflexus = assay: Post-emergence action against weeds; conditions: post-emergence method, application rate of 0.1 kg or less of active substance per hectare, visual scoring after about 3 to 4 weeks
Method: as §3

Stellaria media [8] = assay: Post-emergence action against weeds; conditions: post-emergence method, application rate of 0.1 kg or less of active substance per hectare, visual scoring after about 3 to 4 weeks
Method: as §3

Abuthilon theophrasti = assay: Post-emergence action against weeds; conditions: post-emergence method, application rate of 0.1 kg or less of active substance per hectare, visual scoring after about 3 to 4 weeks
Method: as §3

barley = assay: Compatibility with crop plants; conditions: pre- or post-emergence treatment in the greenhouse; visual scoring four to five weeks after application; even at relatively high application rates
From the text: In further tests in the greenhouse, seeds of a relatively large number of crop plants and weeds were placed in sandy loam and covered with soil. Some of the pots were immediately treated as described in section 1, the others were placed in the greenhouse until the plants had developed two to three true leaves and were then sprayed with 2-iodo-N-[(4-methoxy-6-methyl-1,3,5-triazin-2-yl)carbamoyl]benzenesulfonamide and also, for example, the compounds Nos. I-1, I-2, I-3, I-4, I-12, I-18 and 1-19 from Table 1, as described in section 2.

Row | Compound | herbicidal activity (Viola tricolor [1]) | herbicidal activity (Lolium multiflorum [2]) | herbicidal activity (Matricaria inodora [3]) | herbicidal activity (Papaver rhoeas) | herbicidal activity (Stellaria media [4]) | herbicidal activity (Viola tricolor [5]) | herbicidal activity (Lolium multiflorum [6]) | herbicidal activity (Matricaria inodora [7]) | herbicidal activity (Veronica persica) | herbicidal activity (Ipomoea purpurea) | herbicidal activity (Amaranthus retroflexus) | herbicidal activity (Stellaria media [8]) | herbicidal activity (Abuthilon theophrasti) | damage to barley (barley)
1 | CC[N+](CC)(CC)CC.COc1nc(C)nc(NC(=O)[N-]S(=O)(=O)c2ccccc2I)n1 [Compound I-12] | very good herbicidal activity | very good herbicidal activity | very good herbicidal activity | very good herbicidal activity | very good herbicidal activity | very good herbicidal activity | very good herbicidal activity | very good herbicidal activity | very good herbicidal activity | very good herbicidal activity | very good herbicidal activity | very good herbicidal activity | very good herbicidal activity | did not damage barley at all or left only marginal traces of damage
2 | CCCC[N+](CCCC)(CCCC)CCCC.COc1nc(C)nc(NC(=O)[N-]S(=O)(=O)c2ccccc2I)n1 [Compound I-18] | very good herbicidal activity | very good herbicidal activity | very good herbicidal activity | very good herbicidal activity | very good herbicidal activity | very good herbicidal activity | very good herbicidal activity | very good herbicidal activity | very good herbicidal activity | very good herbicidal activity | very good herbicidal activity | very good herbicidal activity | very good herbicidal activity | did not damage barley at all or left only marginal traces of damage
3 | COc1nc(C)nc(NC(=O)NS(=O)(=O)c2ccccc2I)n1 [2-iodo-N-[(4-methoxy-6-methyl-1,3,5-triazin-2-yl)carbamoyl]benzenesulfonamide] | very good herbicidal activity | very good herbicidal activity | very good herbicidal activity | very good herbicidal activity | very good herbicidal activity | very good herbicidal activity | very good herbicidal activity | very good herbicidal activity | very good herbicidal activity | very good herbicidal activity | very good herbicidal activity | very good herbicidal activity | very good herbicidal activity | did not damage barley at all or left only marginal traces of damage
